Target: Full length KDM2B (Homo sapiens (Human), UniProt Q8NHM5)
Assay: KDM2B TR-FRET assay for determining inhibitor IC50
Format: biochemical
Settings: TR-FRET (HTRF), biotin-H3K36me2 peptide substrate, 2-OG 0.3 μM or 6 μM
Text: KDM2B TR-FRET Assay for Determining Inhibitor IC50
The KDM2B TR-FRET Assay described above represents an additional embodiment of the invention.

Sequence of Full length KDM2B (Q8NHM5 whole entry): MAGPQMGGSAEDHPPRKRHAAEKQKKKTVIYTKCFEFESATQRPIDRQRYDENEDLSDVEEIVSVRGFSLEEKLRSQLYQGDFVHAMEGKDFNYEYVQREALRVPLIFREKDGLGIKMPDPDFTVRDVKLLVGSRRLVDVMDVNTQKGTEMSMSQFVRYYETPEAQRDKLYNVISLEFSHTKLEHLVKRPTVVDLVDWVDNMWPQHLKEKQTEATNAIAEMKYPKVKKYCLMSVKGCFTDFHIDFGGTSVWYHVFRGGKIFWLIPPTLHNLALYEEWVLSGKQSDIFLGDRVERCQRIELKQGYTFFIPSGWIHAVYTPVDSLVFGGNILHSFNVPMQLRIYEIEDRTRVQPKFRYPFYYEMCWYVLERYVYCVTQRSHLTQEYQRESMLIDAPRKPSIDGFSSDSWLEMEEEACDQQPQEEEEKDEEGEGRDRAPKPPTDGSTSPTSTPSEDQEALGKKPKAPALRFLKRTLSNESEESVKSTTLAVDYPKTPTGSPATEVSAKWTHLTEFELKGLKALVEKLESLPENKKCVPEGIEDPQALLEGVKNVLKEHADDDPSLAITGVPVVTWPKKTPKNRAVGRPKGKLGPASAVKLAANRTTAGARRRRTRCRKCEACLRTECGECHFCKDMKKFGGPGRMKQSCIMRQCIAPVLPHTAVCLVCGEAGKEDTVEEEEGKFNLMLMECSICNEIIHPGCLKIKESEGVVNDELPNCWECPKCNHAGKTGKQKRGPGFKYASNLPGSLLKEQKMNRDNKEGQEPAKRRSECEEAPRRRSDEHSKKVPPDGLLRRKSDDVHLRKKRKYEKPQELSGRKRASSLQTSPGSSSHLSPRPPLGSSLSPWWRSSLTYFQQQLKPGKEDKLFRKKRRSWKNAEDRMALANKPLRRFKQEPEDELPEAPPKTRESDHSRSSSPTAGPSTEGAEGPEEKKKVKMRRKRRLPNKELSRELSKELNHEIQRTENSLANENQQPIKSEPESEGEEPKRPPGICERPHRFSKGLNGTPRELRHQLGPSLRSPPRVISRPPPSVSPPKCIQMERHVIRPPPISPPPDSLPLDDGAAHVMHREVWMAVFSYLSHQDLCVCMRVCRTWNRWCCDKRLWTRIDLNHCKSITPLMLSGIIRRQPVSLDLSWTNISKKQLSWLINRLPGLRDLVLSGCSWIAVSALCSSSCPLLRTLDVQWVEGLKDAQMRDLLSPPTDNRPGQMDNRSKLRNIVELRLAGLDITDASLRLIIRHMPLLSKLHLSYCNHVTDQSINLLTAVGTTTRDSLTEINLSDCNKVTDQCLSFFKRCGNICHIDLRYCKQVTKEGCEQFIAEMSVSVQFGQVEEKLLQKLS

## CCCN1CCCC(C(=O)c2ccc3cc(OC)ccc3c2)C1 (centres unmarked) [Example 18, (6-methoxy-2-naphthyl)-(1-propyl-3-piperidyl)methanone]
  IC50: 161 nM

## O=C(c1cccc(Oc2ccccc2)c1)C1CCCN(CC2CC2)C1 (centres unmarked) [Example 21, [1-(cyclopropylmethyl)-3-piperidyl]-(3-phenoxyphenyl)methanone]
  IC50: 461 nM

## O=C(c1ccc(C(F)(F)F)cc1)C1CCCN(CC2CC2)C1 (centres unmarked) [Example 22, [1-(cyclopropylmethyl)-3-piperidyl]-[4-(trifluoromethyl)phenyl]methanone]
  IC50: 1400 nM

## O=C(c1ccc(Oc2ccccc2)cc1)C1CCCN(CC2CC2)C1 (centres unmarked) [Example 23, [1-(cyclopropylmethyl)-3-piperidyl]-(4-phenoxyphenyl)methanone]
  IC50: 2100 nM

## O=C(c1cccc(-c2ccccc2)c1)C1CCCN(CC2CC2)C1 (centres unmarked) [Example 25, [1-(cyclopropylmethyl)-3-piperidyl]-(3-phenylphenyl)methanone]
  IC50: 1400 nM

## O=C(c1cc(F)c2ccccc2c1)C1CCCN(CC2CC2)C1 (centres unmarked) [Example 26, [1-(cyclopropylmethyl)-3-piperidyl]-(4-fluoro-2-naphthyl)methanone]
  IC50: 551 nM

## O=C(c1cccc(Oc2ccc(F)cc2)c1)C1CCCN(CC2CC2)C1 (centres unmarked) [Example 27, [1-(cyclopropylmethyl)-3-piperidyl]-[3-(4-fluorophenoxy)phenyl]methanone]
  IC50: 221 nM

## O=C(c1cccc(Oc2ccccc2)c1)[C@H]1CCCN(CC2CC2)C1 [Example 28, [(3S)-1-(cyclopropylmethyl)-3-piperidyl]-(3-phenoxyphenyl)methanone]
  IC50: 1700 nM

## O=C(c1cccc(Oc2ccccc2)c1)[C@@H]1CCCN(CC2CC2)C1 [Example 29, [(3R)-1-(cyclopropylmethyl)-3-piperidyl]-(3-phenoxyphenyl)methanone]
  IC50: 148 nM

## O=C(c1ccc(Oc2ccccc2)cc1)[C@@H]1CCCN(CC2CC2)C1 [Example 30, [(3R)-1-(cyclopropylmethyl)-3-piperidyl]-(4-phenoxyphenyl)methanone]
  IC50: 5900 nM

## O=C(c1ccc(Oc2ccccc2)cc1)[C@H]1CCCN(CC2CC2)C1 [Example 31, [(3S)-1-(cyclopropylmethyl)-3-piperidyl]-(4-phenoxyphenyl)methanone]
  IC50: 136 nM

## O=C(c1ccc(-c2ccccc2)cc1)[C@@H]1CCCN(CC2CC2)C1 [Example 32, [(3R)-1-(cyclopropylmethyl)-3-piperidyl]-(4-phenylphenyl)methanone]
  IC50: 4100 nM

## O=C(c1ccc(-c2ccccc2)cc1)[C@H]1CCCN(CC2CC2)C1 [Example 33, [(3S)-1-(cyclopropylmethyl)-3-piperidyl]-(4-phenylphenyl)methanone]
  IC50: 95.4 nM

## Cc1ccc(-c2ccc(C(=O)C3CCCN(CC4CC4)C3)cc2)cc1 (centres unmarked) [Example 34, [1-(cyclopropylmethyl)-3-piperidyl]-[4-(p-tolyl)phenyl]methanone]
  IC50: 402 nM

## O=C(c1cc(CO)c2ccccc2c1)C1CCCN(CC2CC2)C1 (centres unmarked) [Example 35, [1-(cyclopropylmethyl)-3-piperidyl]-[4-(hydroxymethyl)-2-naphthyl]methanone]
  IC50: 169 nM

## O=C(c1ccc(-c2ccccc2)nc1)C1CCCN(CC2CC2)C1 (centres unmarked) [Example 36, [1-(cyclopropylmethyl)-3-piperidyl]-(6-phenyl-3-pyridyl)methanone]
  IC50: 533 nM

## NCc1cc(C(=O)C2CCCN(CC3CC3)C2)cc2ccccc12 (centres unmarked) [Example 37, [4-(aminomethyl)-2-naphthyl]-[1-(cyclopropylmethyl)-3-piperidyl]methanone]
  IC50: 620 nM

## O=C(c1ccc(-c2ccccn2)cc1)C1CCCN(CC2CC2)C1 (centres unmarked) [Example 38, [1-(cyclopropylmethyl)-3-piperidyl]-[4-(2-pyridyl)phenyl]methanone]
  IC50: 596 nM

## CC(=O)NCc1cc(C(=O)C2CCCN(CC3CC3)C2)cc2ccccc12 (centres unmarked) [Example 39, N-[[3-[1-(cyclopropylmethyl)piperidine-3-carbonyl]-1-naphthyl]methyl]acetamide]
  IC50: 460 nM

## CNC(=O)c1cc(C(=O)C2CCCN(CC3CC3)C2)cc2ccccc12 (centres unmarked) [Example 40, 3-[1-(cyclopropylmethyl)piperidine-3-carbonyl]-N-methyl-naphthalene-1-carboxamide]
  IC50: 626 nM

## CNC(=O)c1cc(C(=O)C2CCCN(C3CCCC3)C2)cc2ccccc12 (centres unmarked) [Example 41, 3-(1-cyclopentylpiperidine-3-carbonyl)-N-methyl-naphthalene-1-carboxamide]
  IC50: 700 nM

## CNC(=O)c1cc(C(=O)C2CCCN(C3CCC3)C2)cc2ccccc12 (centres unmarked) [Example 42, 3-(1-cyclobutylpiperidine-3-carbonyl)-N-methyl-naphthalene-1-carboxamide]
  IC50: 243 nM

## N#Cc1cc(C(=O)C2CCCN(CC3CC3)C2)cc2ccccc12 (centres unmarked) [Example 43, 3-[1-(cyclopropylmethyl)piperidine-3-carbonyl]naphthalene-1-carbonitrile]
  IC50: 143 nM

## N#Cc1cc(C(=O)C2CCCN(C3CCC3)C2)cc2ccccc12 (centres unmarked) [Example 44, 3-(1-cyclobutylpiperidine-3-carbonyl)naphthalene-1-carbonitrile]
  IC50: 101 nM

## N#Cc1cc(C(=O)C2CCCN(C3CCCC3)C2)cc2ccccc12 (centres unmarked) [Example 45, 3-(1-cyclopentylpiperidine-3-carbonyl)naphthalene-1-carbonitrile]
  IC50: 267 nM

## NC(=O)c1cc(C(=O)C2CCCN(C3CCCC3)C2)cc2ccccc12 (centres unmarked) [Example 46, 3-(1-cyclopentylpiperidine-3-carbonyl)naphthalene-1-carboxamide]
  IC50: 209 nM

## NC(=O)c1cc(C(=O)C2CCCN(C3CCC3)C2)cc2ccccc12 (centres unmarked) [Example 47, 3-(1-cyclobutylpiperidine-3-carbonyl)naphthalene-1-carboxamide]
  IC50: 99.7 nM

## NC(=O)c1cc(C(=O)C2CCCN(CC3CC3)C2)cc2ccccc12 (centres unmarked) [Example 48, 3-[1-(cyclopropylmethyl)piperidine-3-carbonyl]naphthalene-1-carboxamide]
  IC50: 180 nM

## COc1ccc2cc(C(=O)C3CCCN(CC4CC4)C3)ccc2c1C (centres unmarked) [Example 49, [1-(cyclopropylmethyl)-3-piperidyl]-(6-methoxy-5-methyl-2-naphthyl)methanone]
  IC50: 163 nM

## CCCN1CCCC(C(=O)c2ccc3c(C)c(OC)ccc3c2)C1 (centres unmarked) [Example 50, (6-methoxy-5-methyl-2-naphthyl)-(1-propyl-3-piperidyl)methanone]
  IC50: 26 nM

## COc1ccc2cc(C(=O)C3CCCN(C4CCCC4)C3)ccc2c1C (centres unmarked) [Example 51, (1-cyclopentyl-3-piperidyl)-(6-methoxy-5-methyl-2-naphthyl)methanone]
  IC50: 118 nM

## COc1ccc2cc(C(=O)C3CCCN(C4CCC4)C3)ccc2c1C (centres unmarked) [Example 52, (1-cyclobutyl-3-piperidyl)-(6-methoxy-5-methyl-2-naphthyl)methanone]
  IC50: 39.4 nM

## COc1ccc2cc(C(=O)C3CCCN(CC4CC4)C3)ccc2c1CC#N (centres unmarked) [Example 53, 2-[6-[1-(cyclopropylmethyl)piperidine-3-carbonyl]-2-methoxy-1-naphthyl]acetonitrile]
  IC50: 33.5 nM

## COc1ccc2cc(C(=O)C3CCCN(C4CCCC4)C3)ccc2c1CC#N (centres unmarked) [Example 54, 2-[6-(1-cyclopentylpiperidine-3-carbonyl)-2-methoxy-1-naphthyl]acetonitrile]
  IC50: 39.5 nM

## COc1ccc2cc(C(=O)C3CCCN(C4CCC4)C3)ccc2c1CC#N (centres unmarked) [Example 55, 2-[6-(1-cyclobutylpiperidine-3-carbonyl)-2-methoxy-1-naphthyl]acetonitrile]
  IC50: 13.2 nM

## CCCN1CCCC(C(=O)c2ccc3c(CC#N)c(OC)ccc3c2)C1 (centres unmarked) [Example 56, 2-[2-methoxy-6-(1-propylpiperidine-3-carbonyl)-1-naphthyl]acetonitrile]
  IC50: 270 nM

## O=C(c1cc(CO)c2ccccc2c1)C1CCCN(C2CCCC2)C1 (centres unmarked) [Example 57, (1-cyclopentyl-3-piperidyl)-[4-(hydroxymethyl)-2-naphthyl]methanone]
  IC50: 125 nM

## O=C(c1cc(CO)c2ccccc2c1)C1CCCN(C2CCC2)C1 (centres unmarked) [Example 58, (1-cyclobutyl-3-piperidyl)-[4-(hydroxymethyl)-2-naphthyl]methanone]
  IC50: 47.6 nM

## Cc1cccc2ccc(C(=O)C3CCCN(CC4CC4)C3)cc12 (centres unmarked) [Example 59, [1-(cyclopropylmethyl)-3-piperidyl]-(8-methyl-2-naphthyl)methanone]
  IC50: 169 nM

## CCCN1CCCC(C(=O)c2ccc3cccc(C)c3c2)C1 (centres unmarked) [Example 60, (8-methyl-2-naphthyl)-(1-propyl-3-piperidyl)methanone]
  IC50: 125 nM

## Cc1cccc2ccc(C(=O)C3CCCN(C4CCCC4)C3)cc12 (centres unmarked) [Example 61, (1-cyclopentyl-3-piperidyl)-(8-methyl-2-naphthyl)methanone]
  IC50: 174 nM

## Cc1cccc2ccc(C(=O)C3CCCN(C4CCC4)C3)cc12 (centres unmarked) [Example 62, (1-cyclobutyl-3-piperidyl)-(8-methyl-2-naphthyl)methanone]
  IC50: 103 nM

## CC(O)c1cc(C(=O)C2CCCN(C3CCCC3)C2)cc2ccccc12 (centres unmarked) [Example 63, (1-cyclopentyl-3-piperidyl)-[4-(1-hydroxyethyl)-2-naphthyl]methanone]
  IC50: 150 nM

## CC(O)c1cc(C(=O)C2CCCN(C3CCC3)C2)cc2ccccc12 (centres unmarked) [Example 64, (1-cyclobutyl-3-piperidyl)-[4-(1-hydroxyethyl)-2-naphthyl]methanone]
  IC50: 43.8 nM

## COc1ccc2cc(C(=O)C3CCCN(C4CC(C#N)C4)C3)ccc2c1 (centres unmarked) [Example 65, 3-[3-(6-methoxynaphthalene-2-carbonyl)-1-piperidyl]cyclobutanecarbonitrite]
  IC50: 309 nM

## COc1ccc2cc(C(=O)C3CCCN(C4CC(F)(F)C4)C3)ccc2c1 (centres unmarked) [Example 66, [1-(3,3-difluorocyclobutyl)-3-piperidyl]-(6-methoxy-2-naphthyl)methanone]
  IC50: 67.5 nM

## CC(O)c1cc(C(=O)C2CCCN(CC3CC3)C2)cc2ccccc12 (centres unmarked) [Example 67, [1-(cyclopropylmethyl)-3-piperidyl]-[4-(1-hydroxyethyl)-2-naphthyl]methanone]
  IC50: 148 nM

From patent US10280149B2, “Therapeutic compounds and uses thereof” (GENENTECH, INC., priority 2015, dated 2019)
